The values that follow come from patent EP2654730B1, “HIGH DRUG LOAD PHARMACEUTICAL FORMULATIONS COMPRISING DRONEDARONE AND ITS PHARMACEUTICALLY ACCEPTABLE SALTS” (KRKA, d.d., Novo mesto, priority 2010, dated 2012).

Data set [1] can be described thus: Specific surface area of dronedarone HCl particles (BET method). The format is physicochemical. The settings on record: particles after crystallization and Jetmill MC-50 micronization. An excerpt:
The specific surface area can be determined using the BET method.

A short description of data set [2]: Particle size d90 by laser light scattering (Malvern Mastersizer MS 2000). The settings on record: particles after crystallization and Jetmill MC-50 micronization. Format: physicochemical. The source says:
As used herein d90<x means that at least 90% by volume of the particles have a particle size below x. The particle size can be determined by laser light scattering for instance using a Malvern Mastersizer Apparatus MS 2000 equipped with a Hydro S dispersion unit. Silicon fluid F10 may be used as dispersion medium.

For data set [3] the following is noted: aqueous media, pH 3-5 (maximal); cited from earlier work.
A short description of data set [4]: Dissolution test of Dronedarone HCl 400 mg tablets (Apparatus 2 paddle). Format: physicochemical. The settings on record: at 60 minutes, paddle 75 rpm, 1000 ml Buffer Solution pH 4.5. The method, then: The dissolution profiles of several of the pharmaceutical compositions exemplified above are determined.
Dissolution conditions for Dronedarone HCl 400 mg tablets: • Apparatus: 2 - Paddle (USP and Ph. Eur.) • Rotation speed: 75 rpm • Medium: 1000 ml Buffer Solution pH 4.5
API 1 or API 2 was included in the pharmaceutical composition as disclosed in example 17.
The pharmaceutical compositions used in dissolution test shown in Figure 2 comprised different surfactants or no surfactant. The pharmaceutical compositions were prepared according to examples 16A-D, 17A and 18A by using API 1, API 2 or API 3.

Where a name gives a salt, the structure may show the parent alone.

For `CCCCc1oc2ccc(NS(C)(=O)=O)cc2c1C(=O)c1ccc(OCCCN(CCCC)CCCC)cc1.Cl` [API 3], the Specific surface area in data set [1] was determined as 6.0 m^2/g. Besides, the “Particle size d90” value in data set [2] worked out at 7.4 µm.
By solubility is commonly meant the concentration that dissolves in the medium under given conditions. For the compound `CCCCc1oc2ccc(NS(C)(=O)=O)cc2c1C(=O)c1ccc(OCCCN(CCCC)CCCC)cc1` [dronedarone hydrochloride, N-(2-butyl-3-(p-(3-(dibutylamino)propoxy)benzoyl)-5-benzofuranyl)methanesulfonamide], the solubility in data set [3] was 1000 to 2000 µg/mL.
In data set [1], `CCCCc1oc2ccc(NS(C)(=O)=O)cc2c1C(=O)c1ccc(OCCCN(CCCC)CCCC)cc1.Cl` [API 1] returned a Specific surface area of 8.3 m^2/g. The “Particle size d90” value in data set [2] came out at 5.1 µm. In addition, the dissolution rate result is on record as “substantial lower dissolution rate” in data set [4] (compositions of examples 16A-D, 17A and 18A, compared with compositions prepared from API 2 or API 3); “substantial lower dissolution rate” in data set [4] (tablet composition of example 17, compared with same composition prepared from API 2).
As to `CCCCc1oc2ccc(NS(C)(=O)=O)cc2c1C(=O)c1ccc(OCCCN(CCCC)CCCC)cc1.Cl` [API 2], in data set [1], the Specific surface area is given as 6.2 m^2/g. Moreover, in data set [2], the “Particle size d90” value came to 7.1 µm.
